Measurements from ChEMBL document CHEMBL5727805, “Bicyclic quinazolinone derivatives” (2020).

Target: Autotaxin (Homo sapiens, UniProt Q13822)
Assay: Human ATX Enzyme Inhibition Assay: ATX inhibition was measured by a fluorescence quenching assay using a specifically labeled substrate analogue (MR121 substrate). To obtain this MR121 substrate, BOC and TBS protected 6-amino-hexanoic acid (R)-3-({2-[3-(2-{2-[2-(2-amino-ethoxy)-ethoxy]-ethoxy}-ethoxy)-propionylamino]-ethoxy}-hydroxy-phosphoryloxy)-2-hydroxy-propyl ester (Ferguson et al., Org. Lett. 2006, 8, 2023) was labeled with MR121 fluorophore [CAS RN 185308-24-1], 1-(3-carboxypropyl)-11-ethyl-1,2,3,4,8,9,10,11-octahydro-dipyrido[3,2-b:2′,3′-i]phenoxazin-13-ium) on the free amine of the ethanolamine side and then, after deprotection, subsequently with tryptophan on the side of the aminohexanoic acid.Assay working solutions were made as follows:Assay buffer (50 mM Tris-HCl, 140 mM NaCl, 5 mM KCl, 1 mM CaCl2, 1 mM MgCl2, 0.01% Triton-X-100, pH 8.0;ATX solution: ATX (human His-tagged) stock solution (1.08 mg/mL in 20 mM bicine, pH 8.5, 0.15 M NaCl, 10% glycerol, 0.3% CHAPS, 0.02% NaN3), diluted to 1.4-2.5× final concentration in assay buffer;MR121 substrate solution: MR121 substrate stock solution (800 μM MR121 substrate in DMSO), diluted to 2-5× final concentration in assay buffer.Test compounds (10 mM stock in DMSO, 8 μL) were obtained in 384 well sample plates (Corning Costar #3655) and diluted with 8 μL DMSO. […]

In the case of `CC(=O)N1CCCN(c2ccc3ncn(CC(=O)NCc4ccc(Cl)c(Cl)c4)c(=O)c3c2)CC1`, the IC50 is reported as 35 nM.
